Assay results as given in ChEMBL document CHEMBL4190346, “Structure-based design, synthesis, and biological evaluation of withaferin A-analogues as potent apoptotic inducers” (Eur J Med Chem, 2017).

Experiments:
[1] = system: MCF7; test: Cytotoxicity against human MCF7 cells assessed as reduction in cell viability using compound addition to cell culture cells in log phase of growth and incubated for 48 hrs by MTT assay; format: functional, cell-based
[2] = system: MCF7; test: Cytotoxicity against human MCF7 cells assessed as reduction in cell viability using compound addition to cell culture cells in lag phase of growth and incubated for 48 hrs by MTT assay; format: functional, cell-based
[3] = system: HeLa; test: Cytotoxicity against human HeLa cells assessed as reduction in cell viability using compound addition to cell culture cells in lag phase of growth and incubated for 48 hrs by MTT assay; format: functional, cell-based
[4] = system: A549; test: Cytotoxicity against human A549 cells assessed as reduction in cell viability using compound addition to cell culture cells in log phase of growth and incubated for 48 hrs by MTT assay; format: functional, cell-based
[5] = system: Vero; test: Cytotoxicity against African green monkey Vero cells assessed as reduction in cell viability using compound addition to cell culture cells in log phase of growth and incubated for 48 hrs by MTT assay; format: cell-based, Chlorocebus sabaeus
[6] = system: HeLa; test: Cytotoxicity against human HeLa cells assessed as reduction in cell viability using compound addition to cell culture cells in log phase of growth and incubated for 48 hrs by MTT assay; format: functional, cell-based
[7] = system: Vero; test: Cytotoxicity against African green monkey Vero cells assessed as reduction in cell viability using compound addition to cell culture cells in lag phase of growth and incubated for 48 hrs by MTT assay; format: cell-based, Chlorocebus sabaeus
[8] = system: A549; test: Cytotoxicity against human A549 cells assessed as reduction in cell viability using compound addition to cell culture cells in lag phase of growth and incubated for 48 hrs by MTT assay; format: functional, cell-based
[9] = Homo sapiens, MCF7, 48 h, read-out: IC50
[10] = Homo sapiens, HeLa, 48 h, read-out: IC50
[11] = Homo sapiens, A549, 48 h, read-out: IC50
[12] = Chlorocebus sabaeus, Vero, 48 h, read-out: IC50

SMILES	IC50 [1, 9] [µM]	IC50 [2, 9] [µM]	IC50 [3, 10] [µM]	IC50 [4, 11] [µM]	IC50 [5, 12] [µM]	IC50 [6, 10] [µM]	IC50 [7, 12] [µM]	IC50 [8, 11] [µM]	IC50 ([1]; mcf7)	IC50 ([2]; mcf7)	IC50 ([3]; hela)	IC50 ([4]; a549)	IC50 ([5]; vero)	IC50 ([6]; hela)	IC50 ([7]; vero)	IC50 ([8]; a549)
CC1=C(CO)C(=O)O[C@@H]([C@@H](C)[C@H]2CC[C@H]3[C@@H]4C[C@H]5O[C@]56[C@@H](O)CC[C@@H](O)[C@]6(C)[C@H]4CC[C@]23C)C1	> 40	> 40	> 40	> 40	> 40	> 40	> 40	> 40	–	–	–	–	–	–	–	–
CC1=C(CO)C(=O)O[C@@H]([C@@H](C)[C@H]2CC[C@H]3[C@@H]4C[C@H]5O[C@]56[C@@H](O)[C@@H](NCc5ccccc5)CC(=O)[C@]6(C)[C@H]4CC[C@]23C)C1	6.6	7.2	8.5	13.8	7.8	11	13.1	10	–	–	–	–	–	–	–	–
CC1=C(COC(=O)c2ccc(Br)cc2)C(=O)O[C@@H]([C@@H](C)[C@H]2CC[C@H]3[C@@H]4C[C@H]5O[C@]56[C@@H](O)C=CC(=O)[C@]6(C)[C@H]4CC[C@]23C)C1	2.3	1	1.2	4.2	0.7	3.8	0.5	2.9	–	–	–	–	–	–	–	–
CC1=C(COC(=O)c2ccoc2)C(=O)O[C@@H]([C@@H](C)[C@H]2CC[C@H]3[C@@H]4C[C@H](Cl)[C@]5(O)[C@@H](O)C=CC(=O)[C@]5(C)[C@H]4CC[C@]23C)C1	28.6	33.5	> 40	> 40	31.2	> 40	30.6	> 40	–	–	–	–	–	–	–	–
CC1=C(CO)C(=O)O[C@@H]([C@@H](C)[C@H]2CC[C@H]3[C@@H]4C[C@H]5O[C@]56[C@@H](O)[C@@H](O)CC(=O)[C@]6(C)[C@H]4CC[C@]23C)C1 [VISCOSALACTONE B]	> 40	> 40	> 40	> 40	> 40	> 40	> 40	> 40	–	–	–	–	–	–	–	–
COC(=O)CCC(=O)OCC1=C(C)C[C@H]([C@@H](C)[C@H]2CC[C@H]3[C@@H]4C[C@H]5O[C@]56[C@@H](O)C=CC(=O)[C@]6(C)[C@H]4CC[C@]23C)OC1=O	1.6	0.4	0.9	3.7	0.6	2.9	0.6	2.3	–	–	–	–	–	–	–	–
CC1=C(CO)C(=O)O[C@@H]([C@@H](C)[C@H]2CC[C@H]3[C@@H]4C[C@@H]5ON[C@@H]6CC(=O)[C@](C)([C@H]4CC[C@]23C)[C@@]5(O)[C@H]6O)C1	> 40	> 40	> 40	> 40	> 40	> 40	> 40	> 40	–	–	–	–	–	–	–	–
CCCCCCCC(=O)OCC1=C(C)C[C@H]([C@@H](C)[C@H]2CC[C@H]3[C@@H]4C[C@H](Cl)[C@]5(O)[C@@H](O)C=CC(=O)[C@]5(C)[C@H]4CC[C@]23C)OC1=O	13.8	15.1	29.5	> 40	16.1	32.9	16.4	31.3	–	–	–	–	–	–	–	–
C[C@@H]([C@H]1CC[C@H]2[C@@H]3C[C@H]4O[C@]45[C@@H](O)[C@H]4O[C@H]4C(=O)[C@]5(C)[C@H]3CC[C@]12C)[C@H]1C[C@@]2(C)O[C@@]2(CO)C(=O)O1	> 40	> 40	> 40	> 40	> 40	> 40	> 40	> 40	–	–	–	–	–	–	–	–
CC1=C(C=O)C(=O)O[C@@H]([C@@H](C)[C@H]2CC[C@H]3[C@@H]4C[C@H]5O[C@]56C(=O)C=CC(=O)[C@]6(C)[C@H]4CC[C@]23C)C1	11	8.9	12.3	16.1	13.4	18.5	12.8	16.9	–	–	–	–	–	–	–	–
C=CCOC(=O)/C(CO)=C(C)\C=C\[C@@H](C)[C@H]1CC[C@H]2[C@@H]3C[C@H]4O[C@]45[C@@H](O)C=CC(=O)[C@]5(C)[C@H]3CC[C@]12C	2.4	2.4	4.2	8.3	4.7	7.1	2.2	7.9	–	–	–	–	–	–	–	–
COCC1=C(C)C[C@H]([C@@H](C)[C@H]2CC[C@H]3[C@@H]4C[C@H]5O[C@]56[C@@H](O)[C@@H](OC)CC(=O)[C@]6(C)[C@H]4CC[C@]23C)OC1=O	21.6	26.9	> 40	> 40	> 40	> 40	36.9	> 40	–	–	–	–	–	–	–	–
COC(=O)CCC(=O)OCC1=C(C)C[C@H]([C@@H](C)[C@H]2CC[C@H]3[C@@H]4C[C@H](Cl)[C@]5(O)[C@@H](OC(=O)CCC(=O)OC)C=CC(=O)[C@]5(C)[C@H]4CC[C@]23C)OC1=O	4.8	5.5	14	8.9	4.1	8	3.9	7.8	–	–	–	–	–	–	–	–
CC1=C(CO)C(=O)O[C@@H]([C@@H](C)[C@H]2CC[C@H]3[C@@H]4C[C@H]5O[C@]56[C@@H](O)[C@H]5O[C@H]5C(=O)[C@]6(C)[C@H]4CC[C@]23C)C1	> 40	> 40	> 40	> 40	> 40	> 40	> 40	> 40	–	–	–	–	–	–	–	–
CC1=C(C)C(=O)O[C@@H]([C@@H](C)[C@H]2CC[C@H]3[C@@H]4C[C@H]5O[C@]56[C@@H](O)CC[C@@H](O)[C@]6(C)[C@H]4CC[C@]23C)C1	> 40	> 40	> 40	> 40	> 40	> 40	> 40	> 40	–	–	–	–	–	–	–	–
CC1=C(COC(=O)C(C)(C)C)C(=O)O[C@@H]([C@@H](C)[C@H]2CC[C@H]3[C@@H]4C[C@H]5O[C@]56C(=O)C=CC(=O)[C@]6(C)[C@H]4CC[C@]23C)C1	1.2	1	4	2.3	1	1.9	4.1	3.7	–	–	–	–	–	–	–	–
CCCCCCCCCCCC(=O)OCC1=C(C)C[C@H]([C@@H](C)[C@H]2CC[C@H]3[C@@H]4C[C@H]5O[C@]56[C@@H](OC(=O)CCCCCCCCCCC)C=CC(=O)[C@]6(C)[C@H]4CC[C@]23C)OC1=O	–	–	–	–	–	–	–	–	Nd(Insoluble)	Nd(Insoluble)	Nd(Insoluble)	Nd(Insoluble)	Nd(Insoluble)	Nd(Insoluble)	Nd(Insoluble)	Nd(Insoluble)
CC(=O)OCC1=C(C)C[C@H]([C@@H](C)[C@H]2CC[C@H]3[C@@H]4C[C@H]5O[C@]56[C@@H](OC(=O)c5ccc(Br)cc5)C=CC(=O)[C@]6(C)[C@H]4CC[C@]23C)OC1=O	0.6	0.4	1.2	1.7	0.9	2.1	0.5	2.1	–	–	–	–	–	–	–	–
COc1ccc(C(=O)OCC2=C(C)C[C@H]([C@@H](C)[C@H]3CC[C@H]4[C@@H]5C[C@H](Cl)[C@]6(O)[C@@H](OC(=O)c7ccc(OC)cc7)C=CC(=O)[C@]6(C)[C@H]5CC[C@]34C)OC2=O)cc1	4.5	3	11.2	> 40	3	28.1	3.7	24	–	–	–	–	–	–	–	–
CC1=C(CO[Si](C)(C)C(C)(C)C)C(=O)O[C@@H]([C@@H](C)[C@H]2CC[C@H]3[C@@H]4C[C@H](Cl)[C@]5(O)[C@@H](O)C=CC(=O)[C@]5(C)[C@H]4CC[C@]23C)C1	3.1	2.5	3.1	3.8	3.1	3.4	3.5	4.1	–	–	–	–	–	–	–	–
CC1=C(CCl)C(=O)O[C@@H]([C@@H](C)[C@H]2CC[C@H]3[C@@H]4C[C@H]5O[C@]56[C@H](Cl)C=CC(=O)[C@]6(C)[C@H]4CC[C@]23C)C1	4.8	4.1	3.1	18.1	3.1	7.9	1.9	9.6	–	–	–	–	–	–	–	–
CC(=O)OCC1=C(C)C[C@H]([C@@H](C)[C@H]2CC[C@H]3[C@@H]4C[C@H]5O[C@]56C(=O)C=CC(=O)[C@]6(C)[C@H]4CC[C@]23C)OC1=O	6.8	6.4	16.3	16.2	6.4	17.5	3.9	13.2	–	–	–	–	–	–	–	–
